Where two headings read alike, the source gives them in different places.
Tests used:
[1] = Hypotensive activity in anesthetized rats (mean arterious pressure, i.v. bolus); format: in vivo, male albino rats (D strain, Charles River); details: for Potency ratio, In vivo: Table III; for ED20: iv, read-out: ED20, dose reducing by 20% the mean arterious pressure (graphically calculated)
Experimental: Male albino rats were used (D strain, Charles River) anesthetized with a starting dose of sodium pentobarbital of 60 mg/kg i.p. and thermoregulated at 37° C. Mean arterious pressure was monitored at right carotidis arteria, while the compounds were administered as a bolus into the jugular vein, at constant volumes of 0.3 and 1 ml/kg.
The results, expressed as ED20, dose causing a 20% reduction in the mean arterious pressure (graphically calculated) are expressed in table III, relating to compounds substituted at the 2- and 5-positions.

[2] = system: helicoidal strips of rabbit aorta; test: In vitro vasodilating activity: inhibition of K+-induced contraction of aorta strips; format: cell-based, male albino rabbits (New Zealand strain); details: for Potency ratio, In vitro: Table III; for IC50: Oryctolagus cuniculus, read-out: ED50 (concentration causing a 50% inhibition of contraction)
Experimental: Aorta strips from male albino rabbits (New Zealand strain), prepared according to the method by Furchgott and Bhadrakom--J. Pharm. Exp. Ther. 108, 129 (1953), were contracted with a solution enriched in K^+ (100 mM). When the contraction was stable, the test compounds were added, according to the method of cumulative dosages.
The responses were isometrically recorded and expressed as contraction percentage inhibition. The concentration causing 50% inhibition (ED50) was calculated on the basis of the equation of the linear tract of the dose-response curves. The obtained results expressed as ED50 values are reported in tables I and II (which respectively relate to the compounds substituted at the 2-and and 5-positions), together with the values of the octanol/water partition coefficient. The potency ratio for each compound, in comparison with the starting mononitrate, IS-2-N and IS-5-N, is reported in the same tables.

[3] = octanol/water partition coefficient; format: physicochemical; details: for logP: octanol/water, read-out: Partition coeff. (octanol/H2O) (converted)
[4] = Table I, in comparison with isosorbide 5-nitrate
[5] = Table I, 2-acyl derivatives of isosorbide 5-nitrate
[6] = Table II, 5-acyl derivatives of isosorbide 2-nitrate, K+ 100 mM
[7] = Table II, in comparison with isosorbide 2-nitrate
[8] = Table II, 5-acyl derivatives of isosorbide 2-nitrate
[9] = Table I, 2-acyl derivatives of isosorbide 5-nitrate, K+ 100 mM

COc1cc(C=CC(=O)O[C@H]2CO[C@H]3[C@@H]2OC[C@H]3O[N+](=O)[O-])cc(OC)c1OC [VI, 1,4:3,6-dianhydrosorbitol 2-(3,4,5-trimethoxy)cinnamate 5-nitrate]
Potency ratio, In vivo ([1]; relative to IS-5-N): ≈ 94 | ED20 ([1]; anesthetized rat): 1.6 µmol/kg | Potency ratios (confidence limits) [2, 4]: 7.08 (4.21-11.67) | Potency ratio, In vitro ([2]; relative to IS-5-N): 7 | logP [3, 5]: 2.44

CCC(=O)O[C@@H]1CO[C@H]2[C@@H]1OC[C@@H]2O[N+](=O)[O-] [IS-5P-2N, isosorbide 2-nitrate 5-propionate, reference compound]
IC50 [2, 6]: 1.54 µM | Potency ratios (confidence limits) [2, 7]: 15.59 (10.74-22.44) | Potency ratio, In vitro ([2]; relative to IS-2-N): 15.6 | logP [3, 8]: 0.947

CCCCCCCCCCCCCCCC(=O)O[C@H]1CO[C@H]2[C@@H]1OC[C@H]2O[N+](=O)[O-] [III, 1,4:3,6-dianhydrosorbitol 5-nitrate 2-palmitate]
IC50 [2, 9]: > 10 µM | logP [3, 5]: 1.35

COc1ccc(C=CC(=O)O[C@H]2CO[C@H]3[C@@H]2OC[C@H]3O[N+](=O)[O-])cc1OC [IV, 1,4:3,6-dianhydrosorbitol 2-(3,4-dimethoxy)cinnamate 5-nitrate]
Potency ratio, In vivo ([1]; relative to IS-5-N): ≈ 83 | ED20 ([1]; anesthetized rat): 1.8 µmol/kg | Potency ratios (confidence limits) [2, 4]: ~3 | Potency ratio, In vitro ([2]; relative to IS-5-N): 3 | logP [3, 5]: 2.96

O=C(CCC(=O)O[C@H]1CO[C@H]2[C@@H]1OC[C@H]2O[N+](=O)[O-])O[C@H]1CO[C@H]2[C@@H]1OC[C@H]2O[N+](=O)[O-] [XII, bis-(1,4:3,6-dianhydrosorbitol 5-nitrate-2-il)succinate]
ED20 ([1]; Rattus norvegicus): 7 µmol/kg | Potency ratio, In vivo ([1]; relative to IS-5-N): ≈ 21 | Potency ratios (confidence limits) [2, 4]: ~20 | Potency ratio, In vitro ([2]; relative to IS-5-N): 7 | logP [3, 5]: 1.81

COc1ccc(C=CC(=O)O[C@@H]2CO[C@H]3[C@@H]2OC[C@@H]3O[N+](=O)[O-])cc1OC [VII, 1,4:3,6-dianhydrosorbitol 5-(3,4-dimethoxy)cinnamate 2-nitrate]
Potency ratio, In vivo ([1]; relative to IS-2-N): ≈ 40 | ED20 ([1]; anesthetized rat): 0.3 µmol/kg | Potency ratios (confidence limits) [2, 7]: ~1 | Potency ratio, In vitro ([2]; relative to IS-2-N): 1 | logP [3, 8]: 2.2

O=[N+]([O-])O[C@H]1CO[C@H]2[C@@H]1OC[C@H]2O [IS-2-N, 1,4:3,6-dianhydrosorbitol 2-nitrate, reference compound]
ED20 ([1]; Rattus norvegicus): 12 µmol/kg | Potency ratio, In vivo ([1]; relative to IS-2-N): ≈ 1 | IC50 [2]: 23.9 µM | Potency ratios (confidence limits) [2, 7]: 1.0 | Potency ratio, In vitro ([2]; relative to IS-2-N): 1 | logP [3, 8]: -0.231

CC(=O)O[C@@H]1CO[C@H]2[C@@H]1OC[C@@H]2O[N+](=O)[O-] [IS-5A-2N, isosorbide 5-acetate 2-nitrate, reference compound]
Potency ratio, In vivo ([1]; relative to IS-2-N): ≈ 5.4 | ED20 ([1]; anesthetized rat): 2.2 µmol/kg | IC50 [2, 6]: 3.97 µM | Potency ratios (confidence limits) [2, 7]: 6.55 (4.60-9.17) | Potency ratio, In vitro ([2]; relative to IS-2-N): 6.5 | logP [3, 8]: 0.418

CC(=O)O[C@H]1CO[C@H]2[C@@H]1OC[C@H]2O[N+](=O)[O-] [IS-2A-5N, isosorbide 2-acetate 5-nitrate, reference compound]
Potency ratio, In vivo ([1]; relative to IS-5-N): ≈ 60 | ED20 ([1]; anesthetized rat): 2.5 µmol/kg | IC50 [2, 9]: 33.9 µM | Potency ratios (confidence limits) [2, 4]: 8.21 (5.11-13.13) | Potency ratio, In vitro ([2]; relative to IS-5-N): 8 | logP [3, 5]: 0.579

CCOC(=O)CCCCC(=O)O[C@@H]1CO[C@H]2[C@@H]1OC[C@@H]2O[N+](=O)[O-] [XIII, 1,4:3,6-dianhydrosorbitol 2-nitrate 5-(5-ethoxycarbonyl)-pentanoate]
Potency ratio, In vivo ([1]; relative to IS-2-N): ≈ 4.8 | ED20 ([1]; anesthetized rat): 2.5 µmol/kg | Potency ratios (confidence limits) [2, 7]: 6.65 (4.81-9.10) | Potency ratio, In vitro ([2]; relative to IS-2-N): 6.6 | logP [3, 8]: 1.58

O=[N+]([O-])O[C@@H]1CO[C@H]2[C@@H]1OC[C@@H]2O [IS-5-N, 1,4:3,6-dianhydrosorbitol 5-nitrate, reference compound]
ED20 ([1]; Rattus norvegicus): 150 µmol/kg | Potency ratio, In vivo ([1]; relative to IS-5-N): 1 | IC50 [2]: 253 µM | Potency ratios (confidence limits) [2, 4]: 1.0 | Potency ratio, In vitro ([2]; relative to IS-5-N): 1 | logP [3, 5]: -0.0501

O=C(C=Cc1ccccc1)O[C@H]1CO[C@H]2[C@@H]1OC[C@H]2O[N+](=O)[O-] [V, 1,4:3,6-dianhydrosorbitol 2-cinnamate 5-nitrate]
Potency ratio, In vivo ([1]; relative to IS-5-N): ≈ 79 | ED20 ([1]; anesthetized rat): 1.9 µmol/kg | Potency ratios (confidence limits) [2, 4]: ~1 | Potency ratio, In vitro ([2]; relative to IS-5-N): 1 | Partition coeff. (octanol/H2O) [3]: very high

COc1cc(C=CC(=O)O[C@@H]2CO[C@H]3[C@@H]2OC[C@@H]3O[N+](=O)[O-])cc(OC)c1OC [IX, 1,4:3,6-dianhydrosorbitol 5-(3,4,5-trimethoxy)cinnamate 2-nitrate]
Potency ratio, In vivo ([1]; relative to IS-2-N): ≈ 20 | ED20 ([1]; anesthetized rat): 0.6 µmol/kg | Potency ratios (confidence limits) [2, 7]: ~3 | Potency ratio, In vitro ([2]; relative to IS-2-N): 6 | logP [3, 8]: 2.5

COc1cc(C(=O)O[C@@H]2CO[C@H]3[C@@H]2OC[C@@H]3O[N+](=O)[O-])cc(OC)c1OC [X, 1,4:3,6-dianhydrosorbitol 5-(3,4,5-trimethoxy)-benzoate 2-nitrate]
Potency ratio, In vivo ([1]; relative to IS-2-N): ≈ 30 | ED20 ([1]; anesthetized rat): 0.4 µmol/kg | IC50 [2, 6]: 13.8 µM | Potency ratios (confidence limits) [2, 7]: 1.58 (1.13-2.19) | Potency ratio, In vitro ([2]; relative to IS-2-N): 1 | times more active than the starting mononitrate ([2]; in vitro, II vs IS-5N, X vs IS-2N): 1.58 times | times more lipophilic than the starting mononitrate [3]: 200 times | logP [3, 8]: 2.08

CCC(=O)O[C@H]1CO[C@H]2[C@@H]1OC[C@H]2O[N+](=O)[O-] [IS-2P-5N, isosorbide 5-nitrate 2-propionate, reference compound]
Potency ratio, In vivo ([1]; relative to IS-5-N): ≈ 65 | ED20 ([1]; anesthetized rat): 2.3 µmol/kg | IC50 [2, 9]: 56.8 µM | Potency ratios (confidence limits) [2, 4]: 5.19 (3.53-7.52) | Potency ratio, In vitro ([2]; relative to IS-5-N): 5 | logP [3, 5]: 1.15

CCOC(=O)CCCCC(=O)O[C@H]1CO[C@H]2[C@@H]1OC[C@H]2O[N+](=O)[O-] [XI, 1,4:3,6-dianhydrosorbitol 5-nitrate 2-(5-ethoxycarbonyl)pentanoate]
Potency ratio, In vivo ([1]; relative to IS-5-N): ≈ 21 | ED20 ([1]; anesthetized rat): 7 µmol/kg | IC50 [2, 9]: 46.4 µM | Potency ratios (confidence limits) [2, 4]: 6.91 (4.78-9.88) | Potency ratio, In vitro ([2]; relative to IS-5-N): 7 | logP [3, 5]: 1.48

O=C(O)CCC(=O)O[C@H]1CO[C@H]2[C@@H]1OC[C@H]2O[N+](=O)[O-] [XIV, 1,4:3,6-dianhydrosorbitol 5-nitrate 2-(3-carboxy)propionate]
ED20 ([1]; Rattus norvegicus): 300 µmol/kg | Potency ratio, In vivo ([1]; relative to IS-5-N): ≈ 0.5 | IC50 [2]: 2100 µM | Potency ratios (confidence limits) [2, 4]: 0.16 (0.10-0.25) | Potency ratio, In vitro ([2]; relative to IS-5-N): 0.2 | logP [3, 5]: 0.294

CCCCCCCCCCCCCCCC(=O)O[C@@H]1CO[C@H]2[C@@H]1OC[C@@H]2O[N+](=O)[O-] [VIII, 1,4:3,6-dianhydrosorbitol 2-nitrate 5-palmitate]
logP [3, 8]: 1.51
